According to patent US10532064B2, “Biophosphonate compounds and gamma delta T cell-mediated therapy for treating epstein-barr virus-associated disorders” (priority 2014, dated 2020):

Tests used:
[1] = system: cytolytic activities of Vγ9Vδ2-T cells against EBV-LCL; test: Blocking of Vγ9Vδ2-T cell cytotoxicity against EBV-LCL by inhibitors and neutralizing antibodies; type: cell-based, human; conditions: E:T 10:1; antibodies 10 μg/ml, CMA and Bcl-2 1 μg/ml
Procedure: FIG. 1A: Phenotypes of EBV-LCL and autologous normal human B cells. The white histograms represent MICA/B, Fas, FasL DR4 and DR5, and the gray histograms represent isotype controls. […] FIG. 1C, 1D, 1G: PAM-expanded Vγ9Vδ2 T cells purified by positive selection were co-cultured with autologous EBV-LCL or normal B cells at different E:T ratios (FIG. 1C) or an E:T ratio of 10:1 (FIGS. 1D and 1G) for 4-6 hours. FIG. 1D: The Vγ9Vδ2 T cells were directly co-cultured with or physically separated from autologous EBV-LCLs for 6 hours by using a transwell system. […] FIG. 1G: The perforin inhibitor CMA, granzyme B inactivator Bcl-2, anti-NKG2D (αNKG2D), anti-TRAIL (αTRAIL) and anti-FasL (αFasL) blocking antibodies, or their relevant isotype control (mouse IgG1, mIgG1) were used in co-culture of EBV-LCL and their autologous PAM-expanded Vγ9Vδ2 T cells. The cytotoxicity was shown as the percentage of inhibition relative to those without any treatment. All the data shown as mean±SEM are representative of four independent experiments. *p<0.05.

[2] = system: Vγ9Vδ2-T cells; test: Expansion of Vγ9Vδ2-T cells from huPBMC in vitro with PAM and IL-2; type: cell-based, human
Procedure: The data are representative of 4 independent experiments. […] Data are representative of 4 independent experiments. […] Data are representative of 4 independent experiments.
Briefly, huPBMC were cultured in RPMI 1640 medium supplemented with 10% FBS. Pamidronate was added at day 0 and day 3 to a final concentration 9 μg/ml.
Human PBMCs were isolated from buffy coat preparation or anticoagulated peripheral blood by Ficoll-paque (GE Health life Science) gradient centrifugation. The PBMCs were cultured in 10% FBS-RPMI1640 supplemented with 15 ul of expansion reagent A; 25 ul of expansion reagent B was added from day 3 post culture. […] Data are representative for 4 independent experiments.

[3] = system: EBV-LPD; test: Control of EBV-LPD by pamidronate in humanized mice (whole huPBMC); type: in vivo
Procedure: FIG. 8A: Protocol for the control of EBV-LPD by pamidronate (PAM) in humanized mice. Humanized mice were treated with PAM or PBS at day 0, 7, 14, 21, 28 after inoculation of EBV-LCL. FIG. 8B-8D: After treatment with PAM (n=8) or PBS (n=7), the survival (FIG. 8B), tumor incidence (FIG. 8C) and tumor volume (FIG. 8D) were measured at the indicated time.
(§1) Vγ9Vδ2-T-cell-depleted huPBMC were obtained after double depletions of […] by positive selection with magnetic microbeads. Rag2^−/−γc^−/− mice were transplanted with whole huPBMC or Vγ9Vδ2-T-cell-depleted huPBMC from the same healthy human donor. […] Humanized mice reconstituted with whole huPBMC (PBMC) or Vγ9Vδ2-T-cell-depleted huPBMC (PBMC-γδ-T) were inoculated with EBV-LCL and treated with pamidronate or PBS according to the protocol shown in FIG. 8A. The survival (FIG. 9A), tumor incidence (FIG. 9B) and tumor volume (FIG. 9C) in humanized mice (PBMC+PAM, n=12; PBMC-γδ-T+PAM, n=7; PBMC-γδ-T+PBS, n=6) are shown.
All animal studies were approved and performed in compliance with the guidelines for the use of experimental animals by the Committee on the Use of Live Animals in the Teaching and Research, the University of Hong Kong. Humanized mice were generated in 4-5 weeks old male or female Rag2^−/−γc^−/− mice by reconstitution of EBV seropositive whole huPBMC or Vγ9Vδ2-T-cell-depleted huPBMC as we described before (Tu et al., 2011). […] Humanized mice or 6-8 week old Rag2^−/−γc^−/− mice were inoculated s.c. with EBV-LCL or EGFP-expressing EBV-LCL (0.1×10^6/mouse). […] For humanized mice, a human equivalent dose of PAM (10 mg/kg body weight; Pamisol; Hospira Austrilia Pty Led) was injected i.p. at indicated time. The mice treated with an equivalent volume of PBS were used as controls. The signs of disease (loss of activity, weight loss, ruffled hair, palpable tumors, and ascites) and survival of mice were monitored. Mice with more than 17 mm of diameter subcutaneous tumor were sacrificed and counted as dying. Otherwise, mice were followed for 100 or 170 days and then killed. All mice were examined for postmortem evidence of tumor. The tumors and organs were collected for histology and immunohistochemistry assays.
After inoculation with EBV-LCL (1×10^5/mouse) s.c., humanized mice were injected intraperitoneally (i.p.) with pamidronate (10 mg/kg body weight) at day 0, 7, 14, 21 and 28 post EBV-LCL inoculation (FIG. 8A). PBS-treated mice were used as controls.
Mice reconstituted with whole huPBMC or Vγ9Vδ2-T-cell-depleted huPBMC were inoculated with EBV-LCLs s.c. and injected with pamidronate (10 mg/kg body weight) i.p. at day 0, 7, 14, 21 and 28 post EBV-LCL inoculation.

[4] = system: EBV-LPD; test: Pamidronate in humanized mice reconstituted with Vγ9Vδ2-T-cell-depleted huPBMC; type: in vivo; conditions: 10 mg/kg i.p. day 0, 7, 14, 21, 28
From the text: as §1
All animal studies were approved and performed in compliance with the guidelines for the use of experimental animals by the Committee on the Use of Live Animals in the Teaching and Research, the University of Hong Kong. Humanized mice were generated in 4-5 weeks old male or female Rag2^−/−γc^−/− mice by reconstitution of EBV seropositive whole huPBMC or Vγ9Vδ2-T-cell-depleted huPBMC as we described before (Tu et al., 2011). […] The signs of disease (loss of activity, weight loss, ruffled hair, palpable tumors, and ascites) and survival of mice were monitored. Mice with more than 17 mm of diameter subcutaneous tumor were sacrificed and counted as dying. […]

[5] = post 20 days of in vitro culture in the presence of PAM and IL-2
[6] = Example 5, vs PBS-treated humanized mice
[7] = Example 6, humanized mice with whole huPBMC

Compound | effect on cytolytic activity of Vγ9Vδ2-T cells against EBV-LCL [1] | activation and expansion of Vγ9Vδ2-T cells ([2]; huPBMC, PAM 9 μg/mL, rhIL-2 from day 3) | expansion of Vγ9Vδ2-T cells (mean) [2, 5] [fold] | expansion of Vγ9Vδ2-T cells (range) [2, 5] | percentage of Vγ9Vδ2-T cells within the PBMCs (mean) [2, 5] [%] | percentage of Vγ9Vδ2-T cells within the PBMCs (range) ([2]; post 20 days of in vitro culture in the presence of PAM and IL-2, baseline 1-5% (mean 3%), 4 experiments) | mice died within 100 days ([3]; 10 mg/kg i.p. day 0, 7, 14, 21, 28, 1 out of 8 mice, all PBS mice died) [%] | mice with subcutaneous tumor growth within 100 days ([3]; 10 mg/kg i.p. day 0, 7, 14, 21, 28, 3 out of 8 mice) [%] | frequency of Vγ9Vδ2-T cells in the peripheral blood ([3]; 10 mg/kg i.p., vs PBS) | persistence of Vγ9Vδ2-T cells in the peripheral blood ([3]; EBV-LCL-grafted humanized mice, pamidronate-treated) | survival ([3]; Example 5, PAM n=8 vs PBS n=7) | tumor incidence [3, 6] | tumor volume [3, 6] | tumor occurrence [3, 7] | tumor volume [3, 7] | survival ([3]; Example 6, humanized mice with whole huPBMC, n=12) | tumor metastasis in other organs at necropsy ([3]; day 100, surviving 7 mice) | effects on survival, tumor occurrence and tumor volume [4]
C/C=C/[C@H]1O[C@@](O)([C@@H](C)[C@H](O)[C@H](C)[C@H]2OC(=O)/C(OC)=C/C(C)=C/[C@@H](C)[C@@H](O)[C@@H](CC)[C@@H](O)[C@H](C)C/C(C)=C/C=C/[C@@H]2OC)C[C@@H](O[C@H]2C[C@@H](O)[C@H](OC(N)=O)[C@@H](C)O2)[C@@H]1C [CMA, concanamycin A] | strongly inhibited | – | – | – | – | – | – | – | – | – | – | – | – | – | – | – | – | –
NCCC(O)(P(=O)(O)O)P(=O)(O)O [pamidronate] | – | induced selective activation and expansion | 198 | 156-309 fold | 82 | 67-95% | 12.5 | 37.5 | significantly increased | up to 98 days | significantly prolonged | significantly lower tumor incidence | reduced tumor volume | reduced tumor occurrence | decreased tumor volume | significantly prolonged survival | failed to show any evidence of tumor metastasis | had no such effects
Bcl-2: granzyme B inactivator Bcl-2 (R&D Systems) | strongly inhibited | – | – | – | – | – | – | – | – | – | – | – | – | – | – | – | – | –
